Test results as given in the NIST ThermoML archive (doi:10.1016/j.tca.2010.11.013).
Numbers after ± are expanded uncertainties.

Assay: wn = mass fraction of the nth substance listed
Settings: 101 kPa, Liquid; for speed of sound: Sing-around technique in a fixed-path interferometer; for mass density: Vibrating tube method

O=C(CO)[C@@H](O)[C@H](O)[C@H](O)CO [D-fructose] + O
Settings | mass density, 288.15 K [kg/m3] | mass density, 293.15 K [kg/m3] | mass density, 298.15 K [kg/m3] | mass density, 303.15 K [kg/m3] | mass density, 308.15 K [kg/m3] | speed of sound, 288.15 K [m/s] | speed of sound, 293.15 K [m/s] | speed of sound, 298.15 K [m/s] | speed of sound, 303.15 K [m/s] | speed of sound, 308.15 K [m/s]
w1 = 0.0209 | – | – | 1005.17 ± 0.41 | 1003.7 ± 0.41 | 1002.02 ± 0.41 | 1476.2 ± 1.6 | 1492 ± 1.6 | – | 1517.3 ± 1.6 | 1527 ± 1.6
w1 = 0.0389 | 1014.62 ± 0.42 | 1013.56 ± 0.42 | 1012.26 ± 0.42 | – | 1009 ± 0.41 | 1483.1 ± 1.6 | 1498.5 ± 1.6 | 1512 ± 1.6 | – | 1533.2 ± 1.6
w1 = 0.0611 | 1023.64 ± 0.43 | 1022.5 ± 0.43 | 1021.11 ± 0.43 | 1019.51 ± 0.42 | 1017.71 ± 0.42 | – | 1507.8 ± 1.6 | 1520.8 ± 1.6 | 1531.8 ± 1.6 | –

OC[C@H]1O[C@@](CO)(O[C@H]2O[C@H](CO)[C@@H](O)[C@H](O)[C@H]2O)[C@@H](O)[C@@H]1O [D-sucrose] + O
Settings | mass density, 288.15 K [kg/m3] | mass density, 293.15 K [kg/m3] | mass density, 298.15 K [kg/m3] | mass density, 303.15 K [kg/m3] | mass density, 308.15 K [kg/m3] | speed of sound, 288.15 K [m/s] | speed of sound, 293.15 K [m/s] | speed of sound, 298.15 K [m/s] | speed of sound, 303.15 K [m/s] | speed of sound, 308.15 K [m/s]
w1 = 0.0214 | 1007.5 ± 0.62 | 1006.55 ± 0.62 | 1005.34 ± 0.62 | 1003.89 ± 0.62 | 1002.24 ± 0.61 | 1473.1 ± 1.9 | 1489 ± 1.9 | 1503 ± 1.9 | 1515.1 ± 1.9 | 1525.3 ± 1.9
w1 = 0.0419 | 1015.59 ± 0.63 | 1014.59 ± 0.63 | 1013.33 ± 0.63 | 1011.85 ± 0.63 | 1010.16 ± 0.63 | 1479.3 ± 1.9 | 1495.1 ± 1.9 | 1508.8 ± 1.9 | 1520.5 ± 1.9 | 1530.4 ± 1.9
w1 = 0.0614 | 1023.45 ± 0.65 | 1022.4 ± 0.65 | 1021.1 ± 0.64 | 1019.58 ± 0.64 | 1017.85 ± 0.64 | 1486.3 ± 1.9 | 1501.8 ± 1.9 | 1515.3 ± 1.9 | 1526.8 ± 1.9 | 1536.7 ± 1.9
